# Test results from EPA's ToxRefDB 2.
# Columns and labels:
# rat [1] = conditions: Developmental neurotoxicity study; sprague dawley; Injection; Intraperitoneal; dose end: 112 PND; group: cannot be grouped; developmental / developmental malformation / bone / kinked + developmental / offspring survival late / [other] / [other] + reproductive / …
# dog [2] = conditions: Subchronic oral toxicity in nonrodent, beagle, Feed, dose end: 90 day, group: systemic
# dog [3] = conditions: Chronic toxicity, beagle, Oral, Feed, dose end: 52 week, group: systemic
# rat [4] = conditions: Subchronic oral toxicity in rodents, sprague dawley, Feed, dose end: 13 week, group: systemic
# mouse [5] = conditions: Carcinogenicity, cd1, Oral, Feed, dose end: 78 week, group: systemic
# rat [6] = conditions: Subchronic oral toxicity in rodents, sprague dawley, Feed, dose end: 90 day, group: systemic
# rat [7] = conditions: Subchronic oral toxicity in rodents, sprague dawley, Feed, dose end: 13 week, group: systemic, systemic / in life observation / body weight / body weight + systemic / in life observation / body weight / body weight gain + systemic / in…
# mouse [8] = conditions: Subchronic oral toxicity in rodents, cd1, Feed, dose end: 90 day
# dog [9] = conditions: Subchronic oral toxicity in nonrodent, beagle, Feed, dose end: 28 day, group: systemic
# rat [10] = conditions: Multigenerational reproductive toxicity study, sprague dawley, Oral, Feed, dose end: 2 generation
# rat [11] = conditions: Combined chronic toxicity/carcinogenicity, other, Oral, Feed, dose end: 24 month, group: systemic
# rat [12] = conditions: Prenatal developmental toxicity study, sprague dawley, Oral, Gavage/Intubation, dose end: 15 GD
# [13] = systemic / in life observation / body weight / body weight gain
# [14] = systemic / in life observation / body weight / body weight gain + systemic / in life observation / body weight / body weight + systemic / in…
# [15] = systemic / in life observation / body weight / body weight + systemic / in life observation / body weight / body weight gain + systemic / in…
# [16] = systemic / pathology microscopic / kidney / inclusion body intranuclear
# [17] = systemic / pathology microscopic / kidney / inclusion body intranuclear + systemic / in life observation / body weight / body weight + …
# [18] = systemic / in life observation / body weight / body weight + systemic / in life observation / body weight / body weight gain + systemic / …
# [19] = systemic / pathology microscopic / bone marrow / hyperplasia
# [20] = systemic / pathology microscopic / spleen / pigmentation
# [21] = systemic / pathology microscopic / spleen / pigmentation + systemic / in life observation / body weight / body weight + systemic / in life …
# [22] = group: cholinesterase, cholinesterase / cholinesterase / cholinesterase / cholinesterase (che)
# [23] = group: systemic, systemic / clinical chemistry / glucose / glucose + systemic / in life observation / body weight / body weight + systemic / in life …
# [24] = systemic / in life observation / body weight / body weight gain + systemic / in life observation / food consumption / food consumption + …
# [25] = group: offspring, developmental / developmental landmark / preputial separation / preputial separation + systemic / in life observation / body weight / litter…
# [26] = group: parental, systemic / in life observation / body weight / body weight + systemic / in life observation / body weight / body weight gain + systemic / in…
# [27] = group: reproductive, reproductive / offspring survival early / litter size / litter size
# [28] = systemic / in life observation / clinical signs / respiration (rales)
# [29] = group: developmental, developmental / developmental malformation / bone / short
# [30] = group: maternal, systemic / in life observation / body weight / body weight + systemic / in life observation / body weight / body weight gain + systemic / in…
smiles,measurement,setting,value
O=c1[nH]c(=O)n([C@H]2C[C@H](O)[C@@H](CO)O2)cc1Br [5-Bromo-2'-deoxyuridine],LEL,rat [1],50 mg/kg/day
same,LOAEL,rat [1],> 100 mg/kg/day
same,NEL,rat [1],< 50 mg/kg/day
same,NOAEL,rat [1],≥ 100 mg/kg/day
CC(=NC#N)N(C)Cc1ccc(Cl)nc1 [Acetamiprid],LOAEL,dog [2]; [13],32 mg/kg/day
same,NEL,dog [2]; [14],14 mg/kg/day
same,NOAEL,dog [2]; [14],14 mg/kg/day
same,LEL,dog [2]; systemic / in life observation / body weight / body weight gain + systemic / in life observation / food consumption / food consumption,32 mg/kg/day
same,LOAEL,dog [3]; systemic / in life observation / body weight / body weight + systemic / in life observation / body weight / body weight gain,55 mg/kg/day
same,LEL,dog [3]; [15],55 mg/kg/day
same,NEL,dog [3]; [15],20 mg/kg/day
same,NOAEL,dog [3]; [15],20 mg/kg/day
same,LEL,rat [4]; [16],250 mg/kg/day
same,LOAEL,rat [4]; [16],250 mg/kg/day
same,NEL,rat [4]; [17],48.9 mg/kg/day
same,NOAEL,rat [4]; [17],48.9 mg/kg/day
same,LOAEL,mouse [5]; [18],65.6 mg/kg/day
same,NOAEL,mouse [5]; [18],20.3 mg/kg/day
same,LEL,mouse [5]; [19],20.3 mg/kg/day
same,NEL,mouse [5]; [19],< 20.3 mg/kg/day
same,LEL,rat [6]; [20],112 mg/kg/day
same,LOAEL,rat [6]; [20],112 mg/kg/day
same,NEL,rat [6]; [21],36.5 mg/kg/day
same,NOAEL,rat [6]; [21],36.5 mg/kg/day
same,LEL,rat [7],50.8 mg/kg/day
same,LOAEL,rat [7],50.8 mg/kg/day
same,NEL,rat [7],12.4 mg/kg/day
same,NOAEL,rat [7],12.4 mg/kg/day
same,LEL,mouse [8]; [22],430 mg/kg/day
same,LOAEL,mouse [8]; [22],> 430 mg/kg/day
same,NEL,mouse [8]; [22],211 mg/kg/day
same,NOAEL,mouse [8]; [22],≥ 430 mg/kg/day
same,LEL,mouse [8]; [23],211 mg/kg/day
same,LOAEL,mouse [8]; [23],211 mg/kg/day
same,NEL,mouse [8]; [23],106 mg/kg/day
same,NOAEL,mouse [8]; [23],106 mg/kg/day
same,LEL,dog [9]; [13],28 mg/kg/day
same,LOAEL,dog [9]; [13],28 mg/kg/day
same,NEL,dog [9]; [24],16.7 mg/kg/day
same,NOAEL,dog [9]; [24],16.7 mg/kg/day
same,LEL,"rat [10]; group: offspring, developmental / developmental landmark / preputial separation / preputial separation",17.9 mg/kg/day
same,LOAEL,rat [10]; [25],51 mg/kg/day
same,NEL,rat [10]; [25],6.5 mg/kg/day
same,NOAEL,rat [10]; [25],17.9 mg/kg/day
same,LOAEL,rat [10]; [26],51 mg/kg/day
same,NEL,rat [10]; [26],6.5 mg/kg/day
same,NOAEL,rat [10]; [26],17.9 mg/kg/day
same,LEL,"rat [10]; group: parental, systemic / in life observation / body weight / body weight gain",17.9 mg/kg/day
same,LEL,rat [10]; [27],51 mg/kg/day
same,LOAEL,rat [10]; [27],51 mg/kg/day
same,NEL,rat [10]; [27],17.9 mg/kg/day
same,NOAEL,rat [10]; [27],17.9 mg/kg/day
same,LEL,rat [11]; [28],7.1 mg/kg/day
same,NEL,rat [11]; [28],< 7.1 mg/kg/day
same,LOAEL,rat [11]; systemic / pathology microscopic / liver / vacuolization,17.5 mg/kg/day
same,NOAEL,rat [11]; systemic / pathology microscopic / liver / vacuolization + systemic / in life observation / body weight / body weight + systemic / in life …,7.1 mg/kg/day
same,LEL,rat [12]; [29],50 mg/kg/day
same,LOAEL,rat [12]; [29],50 mg/kg/day
same,NEL,rat [12]; [29],16 mg/kg/day
same,NOAEL,rat [12]; [29],16 mg/kg/day
same,LEL,rat [12]; [30],50 mg/kg/day
same,LOAEL,rat [12]; [30],50 mg/kg/day
same,NEL,rat [12]; [30],16 mg/kg/day
same,NOAEL,rat [12]; [30],16 mg/kg/day
